Molecular target: T1, human TAS1R2-P21L (subunit alone) (Homo sapiens, UniProt Q8TE23, P21L)
T1 construct: expressed in transfected cells; host or cells: HEK293T-Gα16gust44
T1 sequence (Q8TE23 20-839 P21L): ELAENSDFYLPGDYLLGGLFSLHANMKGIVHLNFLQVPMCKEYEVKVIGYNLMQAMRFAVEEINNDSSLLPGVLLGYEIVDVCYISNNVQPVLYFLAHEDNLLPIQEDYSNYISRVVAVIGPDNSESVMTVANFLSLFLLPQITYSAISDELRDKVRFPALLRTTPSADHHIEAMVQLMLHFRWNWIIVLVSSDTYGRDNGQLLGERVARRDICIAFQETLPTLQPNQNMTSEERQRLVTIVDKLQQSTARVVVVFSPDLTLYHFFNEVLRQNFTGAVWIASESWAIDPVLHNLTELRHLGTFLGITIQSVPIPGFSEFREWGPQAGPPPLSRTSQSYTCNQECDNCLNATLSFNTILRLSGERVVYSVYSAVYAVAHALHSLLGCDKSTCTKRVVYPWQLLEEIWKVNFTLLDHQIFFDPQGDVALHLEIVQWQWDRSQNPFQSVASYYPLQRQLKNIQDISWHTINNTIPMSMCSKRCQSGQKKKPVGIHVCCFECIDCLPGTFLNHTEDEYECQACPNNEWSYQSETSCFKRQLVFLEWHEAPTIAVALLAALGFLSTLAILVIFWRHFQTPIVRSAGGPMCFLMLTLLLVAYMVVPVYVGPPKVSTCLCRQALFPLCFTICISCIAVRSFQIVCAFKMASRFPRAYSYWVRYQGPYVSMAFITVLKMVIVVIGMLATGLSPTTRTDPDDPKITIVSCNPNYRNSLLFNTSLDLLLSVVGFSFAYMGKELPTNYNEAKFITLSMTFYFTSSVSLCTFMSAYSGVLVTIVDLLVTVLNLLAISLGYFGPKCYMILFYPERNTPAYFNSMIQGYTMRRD
Test: Calcium mobilisation assay, TAS1R2-P21L subunit alone
Assay type: cell-based
Text: The coding sequences for TAS1R2 and TAS1R3 were commercially synthesised, and the human codon was optimised for expression in human cells. The coding sequences of human TAS1R2 and TAS1R3 were subcloned and inserted into the mammalian expression vectors pcDNA6/myc-HisA and pcDNA4/myc-HisA (Invitrogen; Thermo Fisher Scientific; Illkirch, France) between the EcoRI and NotI restriction sites, generating the plasmids pcDNA6-TAS1R2 and pcDNA4-TAS1R3, respectively. To increase protein expression in mammalian cells, an upstream start codon was used, which was a sequence called MAX, corresponding to the QBI SP163 element also described in pcDNA4-HisMax (Invitrogen; Thermo Fisher Scientific; Illkirch, France). To measure the expression level of the receptor by immunohistochemistry, we used the FLAG sequence ([…]) in the C-terminal position, which encodes the FLAG tag epitope. […]
The HEK293T cells were kindly provided by Jay P. Slack (Givaudan Flavors Corporation; Cincinnati, OH, USA). […] The fluorescence intensity was measured for 90 s (excitation 488 nm, emission 510 nm) in an automated fluorometric FlexStation®3 Multi-Mode microplate reader (Molecular Devices; San Jose, CA, USA). […] The Ca^2+ changes were expressed as fractional changes in fluorescent light intensity: ΔF/F = (F − F0)/F0, where F was the fluorescent light intensity at each point, and F0 was the value of emitted fluorescent light prior to stimulus application. To calculate dose–response relationships, the changes in fluorescence upon stimulus application were averaged, mock-subtracted and baseline-corrected. […] The half-maximal effective concentrations (EC50 values) and maximal signal amplitudes were calculated using SigmaPlot software (version 15.0) (Systat Software; San Jose, CA, USA).
For in vitro calcium mobilisation assay performed on hTAS1R2-SNPs, hTAS1R3-SNPs and mTAS1R3-I60T, 6 to 7 concentrations were tested for each sweet compound, plus buffer alone. All concentration–receptor combinations were measured in duplicate, and each experiment was repeated at least 4 times (8 wells/concentration). […]

`C=C(C)[C@@H]1CC=C(/C=N/O)CC1` [Perillartine, perillartine] was tested, and the EC50 was 149 ± 22.7 µM, the “R1 = Variant EC50/WT EC50” value was 1.7 and the “Max ΔF/F0” value (maximal signal amplitude) was 0.33 ± 0.02.

From PMC11945486, “TAS1R2/TAS1R3 Single-Nucleotide Polymorphisms Affect Sweet Taste Receptor Activation by Sweeteners: The SWEET Project” (Nutrients, 2025)
